Values of other authors as cited in patent US5712297A, “Piperdine compounds and their preparation and use” (Novo Nordisk A/S, priority 1989, dated 1998).
Where two headings read alike, the source gives them in different places.

Key:
[1] = in words; cited from earlier work
muscarinic receptors [2] = conditions: known; in words; cited from earlier work
[3] = in words; cited from earlier work; remark: listed apart in the source
muscarinic receptors [4] = conditions: in words; cited from earlier work
[5] = target: muscarinic receptors in the CNS; conditions: cited from earlier work

SMILES	toxicity [1]	muscarinic agonist or antagonist activity (muscarinic receptors [2])	biological half life [3]	separation between central and peripheral muscarinic effects (muscarinic receptors [4])	Kd ([5]; high affinity site, read-out: affinity of 3H-Oxo, first (high affinity) site) [nM]	Kd ([5]; medium affinity site, read-out: affinity of 3H-Oxo, second (medium affinity) site) [nM]	Kd ([5]; third site, not determined under the present experimental conditions, read-out: affinity of 3H-Oxo, third site) [nM]
CC(=O)OC1CN2CCC1CC2 (centres unmarked) [3-acetoxy-quinuclidine]	the same as indicated for arecoline	muscarinic agonist	the same as indicated for arecoline	the same as indicated for arecoline			
C[N+](C)(C)CC#CCN1CCCC1=O [Compound 3H-Oxo, ^3 H-Oxotremorine-M]					1	20	3000
COC(=O)C1=CCCN(C)C1 [arecoline, methyl 1-methyl-1,2,5,6-tetrahydropyridine-3-carboxylate]	rather toxic compound	cholinergic agonist	very short biological half life	small separation between central and peripheral muscarinic effects			
